The source made the active and inactive calls. How the calls were made is not given here.

A short description of the experiment: inhibitor activity on non-replicating M. tuberculosis, dose response, plate reader, dry powder (AID 743175). To be noted: Mycobacterium tuberculosis non-replicating, growth inhibition plate reader.

Regarding `C[C@@H]1CN([C@@H](C)CO)C(=O)c2ccccc2-c2ccccc2CO[C@H]1CN(C)C(=O)[C@H](C)c1ccccc1`, the activity change, negative = inhibition (at 23.5 µM (top of the series)) was 6.24% (inactive). Take `O=C(C[C@H]1C=C[C@H](NC(=O)Nc2cc(F)ccc2F)[C@@H](CO)O1)NCc1ccc2c(c1)OCO2`: the activity change, negative = inhibition (at 26 µM (top of the series)) was -6.29% (inactive). On to `C[C@H](C(=O)N(C)C[C@H]1OCc2ccccc2-c2ccccc2C(=O)N([C@@H](C)CO)C[C@@H]1C)c1ccccc1`, for which the activity change, negative = inhibition (at 26 µM (top of the series)) is -9.24% (inactive).

For `O=C(C[C@@H]1C[C@@H]2c3cc(NC(=O)c4cccnc4)ccc3O[C@@H]2[C@H](CO)O1)NCC(F)(F)F`, where the note is “at 26 µM (top of the series)”, the activity change, negative = inhibition was -0.328% (inactive). As for `COCCNC(=O)C[C@@H]1C[C@@H]2c3cc(NC(=O)Nc4ccc(C(F)(F)F)cc4)ccc3O[C@@H]2[C@@H](CO)O1`, the activity change, negative = inhibition (at 26 µM (top of the series)) is 9.37% (inactive). With `COCCNC(=O)C[C@H]1C[C@@H]2c3cc(NC(=O)Nc4ccc(C(F)(F)F)cc4)ccc3O[C@@H]2[C@H](CO)O1`, where the note is “at 26 µM (top of the series)”, the activity change, negative = inhibition was -0.81% (inactive).

For `CCCOC(=O)c1ccc(NC(=O)c2ccc(Br)o2)cc1`, for the setting “at 38 µM (top of the series)”, the activity change, negative = inhibition was -12.8% (inactive). `C[C@@H]1CN([C@H](C)CO)C(=O)c2ccccc2-c2ccccc2CO[C@@H]1CN(C)C(=O)[C@H](C)c1ccccc1`: the activity change, negative = inhibition (at 26 µM (top of the series)) was -3.88% (inactive). Regarding `COCCNC(=O)C[C@@H]1C[C@@H]2c3cc(NC(=O)Nc4ccc(C(F)(F)F)cc4)ccc3O[C@@H]2[C@H](CO)O1`, the activity change, negative = inhibition (at 23.5 µM (top of the series)) was 6.32% (inactive). As for `COCCNC(=O)C[C@H]1C[C@@H]2c3cc(NC(=O)Nc4ccc(C(F)(F)F)cc4)ccc3O[C@@H]2[C@@H](CO)O1`, under “at 26 µM (top of the series)”, the activity change, negative = inhibition is -5.53% (inactive).

As for `COCCNC(=O)C[C@@H]1C[C@H]2c3cc(NC(=O)Nc4ccc(C(F)(F)F)cc4)ccc3O[C@H]2[C@H](CO)O1`, the activity change, negative = inhibition (at 26 µM (top of the series)) was -6% (inactive). For the compound `Cc1noc(C)c1NC(=O)Nc1ccc2c(c1)C(=O)N(C)[C@@H]1CC[C@H](CC(=O)NCc3ccc(Cl)cc3)O[C@@H]1CO2`, the activity change, negative = inhibition (at 26 µM (top of the series)) is -6.75% (inactive). In the case of `COCCNC(=O)C[C@H]1C[C@H]2c3cc(NC(=O)Nc4ccc(C(F)(F)F)cc4)ccc3O[C@H]2[C@@H](CO)O1`, the activity change, negative = inhibition (at 26 µM (top of the series)) was 6.87% (inactive). The same measure, in the same setting: to `CNC[C@@H]1OCCCC[C@@H](C)Oc2ccc(NC(=O)CCCN(C)C)cc2C(=O)N([C@H](C)CO)C[C@@H]1C` belongs -5.36% (inactive); to `C[C@H](C(=O)N(C)C[C@@H]1OCc2ccccc2-c2ccccc2C(=O)N([C@H](C)CO)C[C@@H]1C)c1ccccc1`, -7.59% (inactive). Turning to `CCOC(=O)c1c(C)n(C)c2ccc(OC(C)C(=O)OC)cc12` (centres undefined), the activity change, negative = inhibition (at 38 µM (top of the series)) was -6.52% (inactive). With `C[C@@H]1CN([C@@H](C)CO)C(=O)c2ccccc2-c2ccccc2CO[C@@H]1CN(C)C(=O)[C@H](C)c1ccccc1`, the activity change, negative = inhibition (at 26 µM (top of the series)) was 5.94% (inactive). In the case of `COCCNC(=O)C[C@@H]1C[C@H]2c3cc(NC(=O)Nc4ccc(C(F)(F)F)cc4)ccc3O[C@H]2[C@@H](CO)O1`, the activity change, negative = inhibition (at 26 µM (top of the series)) was 2.69% (inactive).

On to `Cc1noc(C)c1NC(=O)Nc1ccc2c(c1)C(=O)N(C)[C@H]1CC[C@H](CC(=O)NCc3ccc(Cl)cc3)O[C@H]1CO2`, for which, for the setting “at 23.5 µM (top of the series)”, the activity change, negative = inhibition was -5.96% (inactive).

Regarding `O=C(C[C@H]1C[C@@H]2c3cc(NC(=O)c4cccnc4)ccc3O[C@@H]2[C@@H](CO)O1)NCC(F)(F)F`, where the note is “at 26 µM (top of the series)”, the activity change, negative = inhibition was 2.49% (inactive). For the compound `C[C@@H]1CN([C@H](C)CO)C(=O)c2ccccc2-c2ccccc2CO[C@H]1CN(C)C(=O)[C@H](C)c1ccccc1`, the activity change, negative = inhibition (at 26 µM (top of the series)) was 3.43% (inactive). `CNC[C@H]1OCCCC[C@@H](C)Oc2ccc(NC(=O)CCCN(C)C)cc2C(=O)N([C@H](C)CO)C[C@@H]1C`: the activity change, negative = inhibition (at 23.5 µM (top of the series)) is 0.469% (inactive). For `C[C@H](C(=O)N(C)C[C@@H]1OCc2ccccc2-c2ccccc2C(=O)N([C@@H](C)CO)C[C@@H]1C)c1ccccc1`, the activity change, negative = inhibition (at 26 µM (top of the series)) is -3.21% (inactive).

As to `O=C(C[C@@H]1C=C[C@@H](NC(=O)Nc2cc(F)ccc2F)[C@H](CO)O1)NCc1ccc2c(c1)OCO2`, the activity change, negative = inhibition (at 26 µM (top of the series)) is -1.51% (inactive). Turning to `Cc1noc(C)c1NC(=O)Nc1ccc2c(c1)C(=O)N(C)[C@H]1CC[C@@H](CC(=O)NCc3ccc(Cl)cc3)O[C@H]1CO2`, under “at 26 µM (top of the series)”, the activity change, negative = inhibition is 0.473% (inactive). With `Cc1noc(C)c1NC(=O)Nc1ccc2c(c1)C(=O)N(C)[C@H]1CC[C@H](CC(=O)NCc3ccc(Cl)cc3)O[C@@H]1CO2`, the activity change, negative = inhibition (at 26 µM (top of the series)) was -8.85% (inactive).

Consider `O=C(C[C@H]1C=C[C@@H](NC(=O)Nc2cc(F)ccc2F)[C@H](CO)O1)NCc1ccc2c(c1)OCO2`, for which the activity change, negative = inhibition (at 26 µM (top of the series)) is -2.19% (inactive). Turning to `CNC[C@H]1OCCCC[C@H](C)Oc2ccc(NC(=O)CCCN(C)C)cc2C(=O)N([C@H](C)CO)C[C@@H]1C`, the activity change, negative = inhibition (at 26 µM (top of the series)) was 0.293% (inactive).

As to `C[C@H](CO)N1C[C@H](C)[C@@H](CN(C)C(=O)[C@H](C)c2ccccc2)OCc2ccccc2-c2ccccc2C1=O`, the activity change, negative = inhibition (at 26 µM (top of the series)) was 4.38% (inactive). On to `C[C@@H](C(=O)N(C)C[C@@H]1OCc2ccccc2-c2ccccc2C(=O)N([C@@H](C)CO)C[C@@H]1C)c1ccccc1`, for which the activity change, negative = inhibition (at 26 µM (top of the series)) was 3.38% (inactive).

For `CNC[C@@H]1OCCCC[C@@H](C)Oc2ccc(NC(=O)CCCN(C)C)cc2C(=O)N([C@@H](C)CO)C[C@H]1C`, where the note is “at 26 µM (top of the series)”, the activity change, negative = inhibition was 6.36% (inactive). In the case of `O=C(OCCCCN1C(=O)c2ccccc2C1=O)c1ccc(Br)o1`, the activity change, negative = inhibition (at 38 µM (top of the series)) is -2.9% (inactive). `NC(=O)COc1ccc2cc(-c3ccc(F)cc3)c(=O)oc2c1`: for the setting “at 38 µM (top of the series)”, the activity change, negative = inhibition was -7.91% (inactive). Regarding `COc1ccccc1C#Cc1ccc([C@@H]2[C@@H](C#N)N(C(=O)C3CC3)[C@@H]2CO)cc1`, the activity change, negative = inhibition (at 26 µM (top of the series)) is -12.4% (inactive). On to `O=C(C[C@H]1C=C[C@@H](NC(=O)Nc2cc(F)ccc2F)[C@@H](CO)O1)NCc1ccc2c(c1)OCO2`, for which, for the setting “at 26 µM (top of the series)”, the activity change, negative = inhibition is 4.07% (inactive).

On to `CCCC(C)C(=O)Nc1ccc(Cl)cn1` (centres undefined), for which, for the setting “at 38 µM (top of the series)”, the activity change, negative = inhibition was -14.4% (inactive). As for `O=C(C[C@H]1C[C@H]2c3cc(NC(=O)c4cccnc4)ccc3O[C@H]2[C@H](CO)O1)NCC(F)(F)F`, the activity change, negative = inhibition (at 26 µM (top of the series)) was 10.5% (inactive).

For `C[C@H](C(=O)N(C)C[C@H]1OCc2ccccc2-c2ccccc2C(=O)N([C@H](C)CO)C[C@@H]1C)c1ccccc1`, for the setting “at 26 µM (top of the series)”, the activity change, negative = inhibition is -6.85% (inactive). For `C[C@@H](C(=O)N(C)C[C@H]1OCc2ccccc2-c2ccccc2C(=O)N([C@@H](C)CO)C[C@@H]1C)c1ccccc1`, where the note is “at 26 µM (top of the series)”, the activity change, negative = inhibition is -10.5% (inactive). Regarding `C=CCn1c(NC(=O)c2ccccc2)nc2ccccc21`, the activity change, negative = inhibition (at 38 µM (top of the series)) is -76.7% (inactive). As for `Cc1noc(C)c1NC(=O)Nc1ccc2c(c1)C(=O)N(C)[C@@H]1CC[C@H](CC(=O)NCc3ccc(Cl)cc3)O[C@H]1CO2`, the activity change, negative = inhibition (at 23.5 µM (top of the series)) was -0.708% (inactive). Turning to `C[C@H](C(=O)N(C)C[C@H]1OCc2ccccc2-c2ccccc2C(=O)N([C@H](C)CO)C[C@H]1C)c1ccccc1`, the activity change, negative = inhibition (at 26 µM (top of the series)) is -2.72% (inactive). For the compound `CC(=O)c1ccc(NC(=O)c2cc(CC(C)C)on2)cc1`, for the setting “at 38 µM (top of the series)”, the activity change, negative = inhibition was -14.7% (inactive).

For `Fc1ccc(-c2ccc(CNCc3ccccn3)o2)cc1Cl`, the activity change, negative = inhibition (at 38 µM (top of the series)) was -52% (inactive).

`Cc1noc(C)c1NC(=O)Nc1ccc2c(c1)C(=O)N(C)[C@H]1CC[C@@H](CC(=O)NCc3ccc(Cl)cc3)O[C@@H]1CO2`: for the setting “at 23.5 µM (top of the series)”, the activity change, negative = inhibition was -7.13% (inactive). For `C[C@H](C(=O)N(C)C[C@H]1OCc2ccccc2-c2ccccc2C(=O)N([C@@H](C)CO)C[C@H]1C)c1ccccc1`, the activity change, negative = inhibition (at 26 µM (top of the series)) is -0.472% (inactive).

`CNC[C@H]1OCCCC[C@H](C)Oc2ccc(NC(=O)CCCN(C)C)cc2C(=O)N([C@@H](C)CO)C[C@@H]1C`: the activity change, negative = inhibition (at 26 µM (top of the series)) was -0.478% (inactive). With `O=C(C[C@H]1C=C[C@H](NC(=O)Nc2cc(F)ccc2F)[C@H](CO)O1)NCc1ccc2c(c1)OCO2`, the activity change, negative = inhibition (at 26 µM (top of the series)) is 2.59% (inactive). Regarding `C[C@H](CO)N1C[C@H](C)[C@H](CN(C)C(=O)[C@H](C)c2ccccc2)OCc2ccccc2-c2ccccc2C1=O`, the activity change, negative = inhibition (at 26 µM (top of the series)) is -5.31% (inactive).

For the compound `O=C(C[C@@H]1C=C[C@@H](NC(=O)Nc2cc(F)ccc2F)[C@@H](CO)O1)NCc1ccc2c(c1)OCO2`, where the note is “at 23.5 µM (top of the series)”, the activity change, negative = inhibition was 2.62% (inactive). Consider `O=C(C[C@@H]1C=C[C@H](NC(=O)Nc2cc(F)ccc2F)[C@H](CO)O1)NCc1ccc2c(c1)OCO2`, for which the activity change, negative = inhibition (at 23.5 µM (top of the series)) is -1.22% (inactive).

As for `COCCNC(=O)C[C@H]1C[C@H]2c3cc(NC(=O)Nc4ccc(C(F)(F)F)cc4)ccc3O[C@H]2[C@H](CO)O1`, the activity change, negative = inhibition (at 26 µM (top of the series)) was 5.95% (inactive).

As to `C[C@H](C(=O)N(C)C[C@@H]1OCc2ccccc2-c2ccccc2C(=O)N([C@H](C)CO)C[C@H]1C)c1ccccc1`, the activity change, negative = inhibition (at 23.5 µM (top of the series)) was -2.02% (inactive). For the compound `C[C@H](C(=O)N(C)C[C@@H]1OCc2ccccc2-c2ccccc2C(=O)N([C@@H](C)CO)C[C@H]1C)c1ccccc1`, the activity change, negative = inhibition (at 26 µM (top of the series)) is 1.76% (inactive).

Take `CNC[C@@H]1OCCCC[C@@H](C)Oc2ccc(NC(=O)CCCN(C)C)cc2C(=O)N([C@H](C)CO)C[C@H]1C`: the activity change, negative = inhibition (at 26 µM (top of the series)) is -0.491% (inactive). On to `O=C(C[C@H]1C[C@H]2c3cc(NC(=O)c4cccnc4)ccc3O[C@H]2[C@@H](CO)O1)NCC(F)(F)F`, for which the activity change, negative = inhibition (at 26 µM (top of the series)) is 4.47% (inactive). For `O=C(C[C@@H]1C=C[C@H](NC(=O)Nc2cc(F)ccc2F)[C@@H](CO)O1)NCc1ccc2c(c1)OCO2`, the activity change, negative = inhibition (at 26 µM (top of the series)) is -6.79% (inactive). On to `COc1ccccc1C#Cc1ccc([C@H]2[C@@H](C#N)N(C(=O)C3CC3)[C@@H]2CO)cc1`, for which the activity change, negative = inhibition (at 26 µM (top of the series)) is -31.8% (inactive). In the case of `O=C(OCc1ccc(Cl)c(Cl)c1)c1ccccn1`, the activity change, negative = inhibition (at 38 µM (top of the series)) was -7.55% (inactive).

For the origin of these results see PubChem BioAssay AID743175 (Broad Institute, 2013).
